{"source": "paper PMC12935787", "about": "“Clinical pharmacokinetics and pharmacometabolomics of Andrographis paniculata capsules: Bridging drug disposition and metabolic response to precision medicine” (Naunyn-Schmiedeberg's Archives of Pharmacology, 2025)", "assay": "Clinical pharmacokinetics, plasma LC-MS/MS after single oral dose of AP capsules", "type": "in vivo, human (healthy volunteers)", "conditions": "human, plasma; for concentration at 0 h / concentration at 0.5 h / concentration at 1 h / concentration at 1.5 h / concentration at 2 h / concentration at 2.5 h / concentration at 3 h / concentration at 3.5 h / concentration at 4 h / concentration at 5 h / concentration at 6 h / concentration at 8 h / concentration at 10 h / concentration at 12 h / concentration at 24 h: oral, 2000 mg, 2000 mg AP capsules; for concentration at 0.5 h: 0.50 h; for concentration at 1.5 h: 1.50 h; for concentration at 2.5 h: 2.50 h; for concentration at 3.5 h: 3.50 h", "protocol": "The protocol was published (Tee et al. [2022]).\nSeven calibrators ranging from 1, 2, 5,10, 20, 50, and 100 ng mL^−1 were prepared. Frozen plasma was thawed, vortexed-mixes, and processed via protein precipitation: 50 µL plasma plus 100 µL 0.01% ammonia in methanol were vortexed (20 s), centrifuged (14800 rpm, 5 min) and […] supernatant was transferred to 2 mL vials with inserts. LC–MS/MS injection volume: 10 µL. The separation used a Phenomenex Gemini-NX C18 column (150 × 2.1 mm, 5 μm) with 0.01% ammonia (A) and acetonitrile/methanol (1:1, B) as mobile phases (0.30 mL min^-1). The gradient program: 40% B (0 min), linear increase to 95% B (3 min), hold to 5 min, sharp decrease to 10% B (5.01 min), hold to 7 min, return to 40% B (7.01 min), and re-equilibration to 10 min. Mass detection employed an LCMS-8060NX triple quadrupole with heated ESI in negative mode, monitoring specific MRM transitions: andrographolide (349.3 → 331.2/287.1), 14-deoxyandrographolide (331.2 → 108.0/301.1), and neoandrographolide (479.1 → 317.4/161.1).\nPharmacokinetic parameters were determined from plasma samples (5 subjects, 15 time points) analyzed via LC–MS/MS (Shimadzu 8060NX). […] Specific MRM transitions for andrographolide, 14-deoxyandrographolide, and neoandrographolide in plasma samples of subjects are illustrated in Figure S3. […] The dose-dependent concentration–time curves, pharmacokinetics profiles (Fig. 2a, b and c) and comprehensive individual PK data (Table S4) provide a foundation for developing personalized AP dosing regimens, supporting its precision medicine potential.", "key": {"[1]": {"conditions": "S1, read-out: Plasma concentration"}, "[2]": {"conditions": "S2, read-out: Plasma concentration"}, "[3]": {"conditions": "S3, read-out: Plasma concentration"}, "[4]": {"conditions": "S4, read-out: Plasma concentration"}, "[5]": {"conditions": "S5, read-out: Plasma concentration"}, "[6]": {"conditions": "mean n=5, read-out: Mean concentration"}, "[7]": {"conditions": "2000 mg AP capsules oral, fasting, n=5"}}, "note": "Like-named read-outs stand apart in the source and are kept apart here."}
{"smiles": "C=C1CC[C@@H]2[C@](C)(CO)[C@H](O)CC[C@@]2(C)[C@@H]1CCC1=CCOC1=O", "note": "[14-deoxyandrographolide]", "values": [{"measurement": "concentration at 0 h", "setting": "[1]", "result": 0, "unit": "ng/mL"}, {"measurement": "concentration at 0.5 h", "setting": "[1]", "result": 4.67, "unit": "ng/mL"}, {"measurement": "concentration at 1 h", "setting": "[1]", "result": 2.88, "unit": "ng/mL"}, {"measurement": "concentration at 1.5 h", "setting": "[1]", "result": 7.71, "unit": "ng/mL"}, {"measurement": "concentration at 2 h", "setting": "[1]", "result": 5.18, "unit": "ng/mL"}, {"measurement": "concentration at 2.5 h", "setting": "[1]", "result": 3.32, "unit": "ng/mL"}, {"measurement": "concentration at 3 h", "setting": "[1]", "result": 6.06, "unit": "ng/mL"}, {"measurement": "concentration at 3.5 h", "setting": "[1]", "result": 3.78, "unit": "ng/mL"}, {"measurement": "concentration at 4 h", "setting": "[1]", "result": 0, "unit": "ng/mL"}, {"measurement": "concentration at 5 h", "setting": "[1]", "result": 0, "unit": "ng/mL"}, {"measurement": "concentration at 6 h", "setting": "[1]", "result": 0, "unit": "ng/mL"}, {"measurement": "concentration at 8 h", "setting": "[1]", "result": 0, "unit": "ng/mL"}, {"measurement": "concentration at 10 h", "setting": "[1]", "result": 0, "unit": "ng/mL"}, {"measurement": "concentration at 12 h", "setting": "[1]", "result": 0, "unit": "ng/mL"}, {"measurement": "concentration at 24 h", "setting": "[1]", "result": 0, "unit": "ng/mL"}, {"measurement": "concentration at 0 h", "setting": "[2]", "result": 0, "unit": "ng/mL"}, {"measurement": "concentration at 0.5 h", "setting": "[2]", "result": 0, "unit": "ng/mL"}, {"measurement": "concentration at 1 h", "setting": "[2]", "result": 4.36, "unit": "ng/mL"}, {"measurement": "concentration at 1.5 h", "setting": "[2]", "result": 4.51, "unit": "ng/mL"}, {"measurement": "concentration at 2 h", "setting": "[2]", "result": 3.4, "unit": "ng/mL"}, {"measurement": "concentration at 2.5 h", "setting": "[2]", "result": 2.73, "unit": "ng/mL"}, {"measurement": "concentration at 3 h", "setting": "[2]", "result": 4.33, "unit": "ng/mL"}, {"measurement": "concentration at 3.5 h", "setting": "[2]", "result": 0, "unit": "ng/mL"}, {"measurement": "concentration at 4 h", "setting": "[2]", "result": 0, "unit": "ng/mL"}, {"measurement": "concentration at 5 h", "setting": "[2]", "result": 0, "unit": "ng/mL"}, {"measurement": "concentration at 6 h", "setting": "[2]", "result": 0, "unit": "ng/mL"}, {"measurement": "concentration at 8 h", "setting": "[2]", "result": 0, "unit": "ng/mL"}, {"measurement": "concentration at 10 h", "setting": "[2]", "result": 0, "unit": "ng/mL"}, {"measurement": "concentration at 12 h", "setting": "[2]", "result": 0, "unit": "ng/mL"}, {"measurement": "concentration at 24 h", "setting": "[2]", "result": 0, "unit": "ng/mL"}, {"measurement": "concentration at 0 h", "setting": "[3]", "result": 0, "unit": "ng/mL"}, {"measurement": "concentration at 0.5 h", "setting": "[3]", "result": 23.4, "unit": "ng/mL"}, {"measurement": "concentration at 1 h", "setting": "[3]", "result": 10.1, "unit": "ng/mL"}, {"measurement": "concentration at 1.5 h", "setting": "[3]", "result": 6.33, "unit": "ng/mL"}, {"measurement": "concentration at 2 h", "setting": "[3]", "result": 3.06, "unit": "ng/mL"}, {"measurement": "concentration at 2.5 h", "setting": "[3]", "result": 2.52, "unit": "ng/mL"}, {"measurement": "concentration at 3 h", "setting": "[3]", "result": 1.77, "unit": "ng/mL"}, {"measurement": "concentration at 3.5 h", "setting": "[3]", "result": 0, "unit": "ng/mL"}, {"measurement": "concentration at 4 h", "setting": "[3]", "result": 0, "unit": "ng/mL"}, {"measurement": "concentration at 5 h", "setting": "[3]", "result": 2.59, "unit": "ng/mL"}, {"measurement": "concentration at 6 h", "setting": "[3]", "result": 0, "unit": "ng/mL"}, {"measurement": "concentration at 8 h", "setting": "[3]", "result": 0, "unit": "ng/mL"}, {"measurement": "concentration at 10 h", "setting": "[3]", "result": 0, "unit": "ng/mL"}, {"measurement": "concentration at 12 h", "setting": "[3]", "result": 0, "unit": "ng/mL"}, {"measurement": "concentration at 24 h", "setting": "[3]", "result": 0, "unit": "ng/mL"}, {"measurement": "concentration at 0 h", "setting": "[4]", "result": 0, "unit": "ng/mL"}, {"measurement": "concentration at 0.5 h", "setting": "[4]", "result": 1.49, "unit": "ng/mL"}, {"measurement": "concentration at 1 h", "setting": "[4]", "result": 10, "unit": "ng/mL"}, {"measurement": "concentration at 1.5 h", "setting": "[4]", "result": 13.2, "unit": "ng/mL"}, {"measurement": "concentration at 2 h", "setting": "[4]", "result": 4.7, "unit": "ng/mL"}, {"measurement": "concentration at 2.5 h", "setting": "[4]", "result": 5.46, "unit": "ng/mL"}, {"measurement": "concentration at 3 h", "setting": "[4]", "result": 1.92, "unit": "ng/mL"}, {"measurement": "concentration at 3.5 h", "setting": "[4]", "result": 2.29, "unit": "ng/mL"}, {"measurement": "concentration at 4 h", "setting": "[4]", "result": 1.69, "unit": "ng/mL"}, {"measurement": "concentration at 5 h", "setting": "[4]", "result": 1.8, "unit": "ng/mL"}, {"measurement": "concentration at 6 h", "setting": "[4]", "result": 2.01, "unit": "ng/mL"}, {"measurement": "concentration at 8 h", "setting": "[4]", "result": 2.47, "unit": "ng/mL"}, {"measurement": "concentration at 10 h", "setting": "[4]", "result": 0, "unit": "ng/mL"}, {"measurement": "concentration at 12 h", "setting": "[4]", "result": 0, "unit": "ng/mL"}, {"measurement": "concentration at 24 h", "setting": "[4]", "result": 0, "unit": "ng/mL"}, {"measurement": "concentration at 0 h", "setting": "[5]", "result": 0, "unit": "ng/mL"}, {"measurement": "concentration at 0.5 h", "setting": "[5]", "result": 3.04, "unit": "ng/mL"}, {"measurement": "concentration at 1 h", "setting": "[5]", "result": 2.29, "unit": "ng/mL"}, {"measurement": "concentration at 1.5 h", "setting": "[5]", "result": 3.39, "unit": "ng/mL"}, {"measurement": "concentration at 2 h", "setting": "[5]", "result": 4.99, "unit": "ng/mL"}, {"measurement": "concentration at 2.5 h", "setting": "[5]", "result": 3.66, "unit": "ng/mL"}, {"measurement": "concentration at 3 h", "setting": "[5]", "result": 3.28, "unit": "ng/mL"}, {"measurement": "concentration at 3.5 h", "setting": "[5]", "result": 2.09, "unit": "ng/mL"}, {"measurement": "concentration at 4 h", "setting": "[5]", "result": 1.36, "unit": "ng/mL"}, {"measurement": "concentration at 5 h", "setting": "[5]", "result": 2.4, "unit": "ng/mL"}, {"measurement": "concentration at 6 h", "setting": "[5]", "result": 1.7, "unit": "ng/mL"}, {"measurement": "concentration at 8 h", "setting": "[5]", "result": 0, "unit": "ng/mL"}, {"measurement": "concentration at 10 h", "setting": "[5]", "result": 0, "unit": "ng/mL"}, {"measurement": "concentration at 12 h", "setting": "[5]", "result": 0, "unit": "ng/mL"}, {"measurement": "concentration at 24 h", "setting": "[5]", "result": 0, "unit": "ng/mL"}, {"measurement": "concentration at 0 h", "setting": "[6]", "result": 0, "unit": "ng/mL"}, {"measurement": "concentration at 0.5 h", "setting": "[6]", "result": 6.52, "unit": "ng/mL"}, {"measurement": "concentration at 1 h", "setting": "[6]", "result": 5.94, "unit": "ng/mL"}, {"measurement": "concentration at 1.5 h", "setting": "[6]", "result": 7.02, "unit": "ng/mL"}, {"measurement": "concentration at 2 h", "setting": "[6]", "result": 4.27, "unit": "ng/mL"}, {"measurement": "concentration at 2.5 h", "setting": "[6]", "result": 3.54, "unit": "ng/mL"}, {"measurement": "concentration at 3 h", "setting": "[6]", "result": 3.47, "unit": "ng/mL"}, {"measurement": "concentration at 3.5 h", "setting": "[6]", "result": 1.63, "unit": "ng/mL"}, {"measurement": "concentration at 4 h", "setting": "[6]", "result": 0.61, "unit": "ng/mL"}, {"measurement": "concentration at 5 h", "setting": "[6]", "result": 1.36, "unit": "ng/mL"}, {"measurement": "concentration at 6 h", "setting": "[6]", "result": 0.74, "unit": "ng/mL"}, {"measurement": "concentration at 8 h", "setting": "[6]", "result": 0.49, "unit": "ng/mL"}, {"measurement": "concentration at 10 h", "setting": "[6]", "result": 0, "unit": "ng/mL"}, {"measurement": "concentration at 12 h", "setting": "[6]", "result": 0, "unit": "ng/mL"}, {"measurement": "concentration at 24 h", "setting": "[6]", "result": 0, "unit": "ng/mL"}, {"measurement": "AUC(0-inf)", "setting": "[7]", "result": 21.2, "unit": "ng·h/mL"}, {"measurement": "AUC(0-t)", "setting": "[7]", "result": 19.6, "unit": "ng·h/mL"}, {"measurement": "Cmax", "setting": "[7]", "result": 7.02, "unit": "ng/mL"}, {"measurement": "half-life", "setting": "[7]", "result": 2.18, "unit": "h"}]}
